Test results reported in patent publication US8362004B2, “Piperazine analogs as broad-spectrum influenza antivirals” (priority 2010, dated 2013).
Where two headings read alike, the source gives them in different places.

What was measured:
influenza A/WSN/33 = assay: Antiviral assay in MDCK cells, viral neuraminidase (MUNANA) readout, A/H1N1/WSN; format: cell-based; conditions: read-out: A/H1N1/WSN Activity
[1] = test system: Influenza A/Solomon Islands/3/06; assay: Antiviral assay in MDCK cells, viral neuraminidase (MUNANA) readout, A/H1N1/Solomon Islands; format: cell-based; conditions: read-out: A/H1N1/Solomon Islands Activity
[2] = test system: influenza A/Brisbane/10/2007; assay: Antiviral assay in MDCK cells, viral neuraminidase (MUNANA) readout, A/H3N2/Brisbane; format: cell-based; conditions: read-out: A/H3N2/Brisbane Activity
A/H5N1/Duck_MN = assay: microbe, parasite or virus in culture; format: cell-based, influenza A
A/H5N1/Duck_PA = assay: microbe, parasite or virus in culture; format: cell-based, influenza A
A/H5N1/Gull_PA = assay: microbe, parasite or virus in culture; format: cell-based, influenza A
[3] = MDCK cells, MOI 0.001, 48 hrs post infection, viral NA activity

| SMILES | EC50 (influenza A/WSN/33; [3]) [nM] | EC50 [1, 3] [nM] | EC50 [2, 3] [nM] | EC50 (A/H5N1/Duck_MN; read-out: A/H5N1/Duck_MN) [nM] | EC50 (A/H5N1/Duck_PA; read-out: A/H5N1/Duck_PA) [nM] | EC50 (A/H5N1/Gull_PA; read-out: A/H5N1/Gull_PA) [nM] | EC50 (influenza A/WSN/33; Influenza A virus, MDCK, 48 h) [nM] | EC50 ([1]; Influenza A virus, H1N1, MDCK, 48 h) [nM] | EC50 ([2]; Influenza A virus, H3N2, MDCK, 48 h) [nM] | EC50 (A/H5N1/Duck_MN; Influenza A virus, H5N1, read-out: A/H5N1/Duck_MN) [nM] | EC50 (A/H5N1/Duck_PA; Influenza A virus, H5N1, read-out: A/H5N1/Duck_PA) [nM] | EC50 (A/H5N1/Gull_PA; Influenza A virus, H5N1, read-out: A/H5N1/Gull_PA) [nM] |
| --- | --- | --- | --- | --- | --- | --- | --- | --- | --- | --- | --- | --- |
| COc1ccccc1-c1noc(C)c1C(=O)N1CCN(c2cc(NC(=O)c3nccs3)c([N+](=O)[O-])cc2Cl)CC1 [Example 5] | < 100 | < 100 | < 1000 | < 100 | < 100 | < 100 |  |  |  |  |  |  |
| COc1ccccc1-c1noc(C)c1C(=O)N1CCN(c2cc(NC(=O)c3ccc(N(C)C)cc3)c([N+](=O)[O-])cc2Cl)CC1 [Example 14, N-(4-chloro-5-(4-(3-(2-methoxyphenyl)-5-methylisoxazole-4-carbonyl)piperazin-1-yl)-2-nitrophenyl)-4-(dimethylamino)benzamide] |  |  |  |  |  |  | < 100 | < 100 | < 100 | < 100 | < 1000 | < 100 |
| COc1ccccc1-c1nnn(C)c1C(=O)N1CCN(c2cc(NC(=O)c3ccc(N4CCOC4=O)cc3)c([N+](=O)[O-])cc2Cl)CC1 [Example 93] | < 100 | < 100 | < 1000 | < 1000 | < 1000 | < 100 |  |  |  |  |  |  |
